The nature of data set [1]: Stability in simulated intestinal fluid at pH 6.8 assessed as half life at 1 mM by HPLC analysis. Format: ADME.
Another data set concerns SH-SY5Y. Description: Cytotoxicity against human differentiated SH-SY5Y cells assessed as reduction in cell viability at 2 to 50 uM measured after 48 hrs by MTT assay. Format: cell-based. The settings on record: dose 2-50 µM. Background: Formazan colour is commonly taken as a measure of viable cells.
Data set [2] in a line: Prodrug conversion assessed as RNase (unknown origin) -mediated drug release by measuring half life in imidazole buffer at 1 mM by UV/Vis detector based HPLC analysis. It is filed as ADME. To be noted: human, 1000 µM.
Data set [3] can be described thus: Aqueous solubility of the compound. Format: physicochemical. The settings on record: buffer.
The nature of data set [4]: Stability in alkaline phosphatase buffer at pH 7.4 assessed as drug degradation at 1 mM measured after 48 hrs by HPLC analysis. Format: ADME. The settings on record: read-out: Drug degradation.
A short description of data set [5]: Prodrug conversion assessed as RNase (unknown origin)-mediated drug release by measuring half life in simulated intestinal fluid at 1 mM by UV/Vis detector based HPLC analysis. Format: ADME. The settings on record: human, simulated gi fluid, 1000 µM.
The nature of data set [6]: Antioxidant activity assessed as DPPH radical scavenging activity measured for 60 mins by spectrophotometric analysis. It is filed as functional.
A short description of data set [7]: Stability in simulated gastric fluid at pH 1.1 assessed as drug degradation at 1 mM measured after 24 hrs by HPLC analysis. It is filed as ADME. To be noted: read-out: Drug degradation.

Molecules are shown by their SMILES. In brackets after ≈: the same amount, converted by molar mass. Where only a bound is given, the exact number is not on record here.

Consider `COc1cc(C2Oc3cc([C@H]4Oc5cc(O)cc(O)c5C(=O)[C@@H]4O)ccc3OC2COP(=O)(O)O[C@H]2[C@@H](O)[C@H](n3cnc4c(N)ncnc43)O[C@@H]2CO)ccc1O` (stereo not given in full), for which, in data set [1], the half-life – broadly, the time needed for the level to fall by half in the phase considered – at 1000 µM was over 24 h. Further, the Activity result with SH-SY5Y is on record as “Non-Toxic”. Also, the t1/2 in data set [2] and in data set [5] was over 48 h each time. Also, the solubility (commonly the dissolved amount per volume that the medium holds) in data set [3] is “Soluble”. Further, the degraded at 48 h, 1000 µM in data set [4] is under 2%. Also, the EC50 – broadly, the concentration giving half of the maximal effect – in data set [6] came out at 620 µM. The degraded at 24 h, 1000 µM in data set [7] was under 5%.
Turning to `COc1cc([C@H]2Oc3cc([C@H]4Oc5cc(O)cc(O)c5C(=O)[C@@H]4O)ccc3O[C@@H]2COP(=O)(O)O[C@H]2[C@@H](O)[C@H](n3ccc(=O)[nH]c3=O)O[C@@H]2CO)ccc1O`, the half-life at 1000 µM in data set [1] is over 24 h. In addition, the Activity entry in the data set on SH-SY5Y is given as “Non-Toxic”. The figures for the t1/2 in data set [2] and in data set [5] were 1.45 h and 13 h, respectively. Further, the solubility result in data set [3] is given as “Soluble”. In addition, the degraded at 48 h, 1000 µM in data set [4] was under 2%. In addition, in data set [6], the concentration for a half-maximal effect (EC50) was determined as 570 µM. In addition, the degraded at 24 h, 1000 µM in data set [7] is 27%.
As for `COc1cc([C@@H]2Oc3cc([C@H]4Oc5cc(O)cc(O)c5C(=O)[C@@H]4O)ccc3O[C@H]2COP(=O)(O)O[C@H]2[C@@H](O)[C@H](n3cnc4c(N)ncnc43)O[C@@H]2CO)ccc1O`, the half-life at 1000 µM in data set [1] was over 24 h. For the same compound, the Activity result in the data set with SH-SY5Y is reported as “Non-Toxic”. Moreover, the t1/2 in data set [2] and in data set [5] was over 48 h in each case. The solubility entry in data set [3] is given as “Soluble”. For the same compound, the degraded at 48 h, 1000 µM in data set [4] is under 2%. The concentration giving a half-maximal response (EC50) in data set [6] was found to be 580 µM. The degraded at 24 h, 1000 µM in data set [7] was under 5%.
For the compound `COc1cc([C@@H]2Oc3cc([C@H]4Oc5cc(O)cc(O)c5C(=O)[C@@H]4O)ccc3O[C@H]2COP(=O)(O)O[C@H]2[C@@H](O)[C@H](n3ccc(=O)[nH]c3=O)O[C@@H]2CO)ccc1O`, in data set [1], the half-life at 1000 µM was over 24 h. Besides, the Activity result in the data set with SH-SY5Y is given as “Non-Toxic”. The figures for the t1/2 in data set [2] and in data set [5] were 0.833 h and 11 h, respectively. For the same compound, the solubility entry in data set [3] is on record as “Soluble”. In data set [4], the degraded at 48 h, 1000 µM is under 2%. Moreover, the EC50 in data set [6] is 530 µM. In addition, in data set [7], the degraded at 24 h, 1000 µM is 27%.
Take `COc1cc([C@H]2Oc3cc([C@H]4Oc5cc(O)cc(O)c5C(=O)[C@@H]4O)ccc3O[C@@H]2COP(=O)(O)O[C@H]2[C@@H](O)[C@H](n3cnc4c(N)ncnc43)O[C@@H]2CO)ccc1O`: the half-life at 1000 µM in data set [1] was over 24 h. In addition, the Activity entry with SH-SY5Y was “Non-Toxic”. For the same compound, the t1/2 in data set [2] and in data set [5] was over 48 h each time. Moreover, the solubility entry in data set [3] is on record as “Soluble”. In addition, the degraded at 48 h, 1000 µM in data set [4] was under 2%. The EC50 in data set [6] turned out to be 630 µM. Moreover, the degraded at 24 h, 1000 µM in data set [7] is under 5%.
Take `COc1cc(C2Oc3cc([C@H]4Oc5cc(O)cc(O)c5C(=O)[C@@H]4O)ccc3OC2COP(=O)(O)O[C@H]2[C@@H](O)[C@H](n3ccc(=O)[nH]c3=O)O[C@@H]2CO)ccc1O` (stereo not given in full): in data set [1], the half-life at 1000 µM was over 24 h. The Activity result with SH-SY5Y was “Non-Toxic”. For the same compound, the t1/2 in data set [2] is 1.67 h; in data set [5], 20 h. Moreover, the solubility entry in data set [3] is recorded as “Soluble”. Moreover, in data set [4], the degraded at 48 h, 1000 µM is under 2%. In addition, the EC50 in data set [6] stood at 490 µM. In addition, the degraded at 24 h, 1000 µM in data set [7] is 27%.
As to `COc1cc(C2Oc3cc([C@H]4Oc5cc(O)cc(O)c5C(=O)[C@@H]4O)ccc3OC2CO)ccc1O` (stereo not given in full) [SILIBININ], the solubility in data set [3] (read-out: solubility) was 1 µM (≈ 0.482 µg/mL). The EC50 in data set [6] turned out to be 620 µM.
For `COc1cc([C@H]2Oc3cc([C@H]4Oc5cc(O)cc(O)c5C(=O)[C@@H]4O)ccc3O[C@@H]2CO)ccc1O` [SILYBIN A], the Activity entry in the data set on SH-SY5Y is given as “Non-Toxic”. Moreover, in data set [6], the concentration giving a half-maximal response (EC50) came out at 360 µM.
For the compound `COc1cc([C@@H]2Oc3cc([C@H]4Oc5cc(O)cc(O)c5C(=O)[C@@H]4O)ccc3O[C@H]2CO)ccc1O` [SILYBIN B], the Activity entry in the data set with SH-SY5Y is on record as “Non-Toxic”. In addition, the EC50 in data set [6] turned out to be 580 µM.
Regarding `Cc1c(C)c2c(c(C)c1O)CCC(C)(C(=O)O)O2` (stereo not given) [TROLOX], in data set [6], the EC50 came to 28 µM.

The record behind these values is ChEMBL document CHEMBL4840353, “Investigation on the solid-phase synthesis of silybin prodrugs and their timed-release” (Bioorg Med Chem, 2021).
